Assay results taken from PubChem BioAssay (NCI).
“And” between values parts separate entries of the source, which are not always exact repeats. Identical values can stand only once.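 These data come from cells grown in 96-well plates and exposed to compound for 48 hours at five concentrations. GI50 is the concentration that inhibits growth by half. TGI is the concentration that stops growth completely.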

What was measured:
Assay in all cases: NCI tumour cell line growth inhibition, 48 h
HCT-116 colon = tested on: HCT-116 colon
A498 renal = tested on: A498 renal
UO-31 renal = tested on: UO-31 renal
LOX IMVI melanoma = tested on: LOX IMVI melanoma
MCF7 breast = tested on: MCF7 breast
OVCAR-5 ovarian = tested on: OVCAR-5 ovarian
SR leukemia = tested on: SR leukemia
DU-145 prostate = tested on: DU-145 prostate
HOP-92 NSCLC = tested on: HOP-92 NSCLC
COLO 205 colon = tested on: COLO 205 colon

COc1ccc2ccccc2c1C1NC(=O)c2ccccc2N1 (stereo not given)
TGI (HCT-116 colon): 13.8 µM
TGI (A498 renal): 8.42 µM
TGI (UO-31 renal): 71.2 µM
TGI (LOX IMVI melanoma): 65.2 µM
TGI (MCF7 breast): 29.4 µM
TGI (OVCAR-5 ovarian): > 31.3 µM
TGI (SR leukemia): 1.67 µM
TGI (DU-145 prostate): > 25.2 µM
TGI (HOP-92 NSCLC): > 80.6 µM

CS(=O)(=O)CCc1cccc(C(=O)c2cnn(-c3ccc(F)cc3)c2N)c1
GI50 (HCT-116 colon): > 25 µM
TGI (HCT-116 colon): > 25 µM
GI50 (COLO 205 colon): > 25 µM
TGI (COLO 205 colon): > 25 µM
GI50 (A498 renal): > 25 µM
TGI (A498 renal): > 25 µM
GI50 (UO-31 renal): > 25 µM
TGI (UO-31 renal): > 25 µM
GI50 (LOX IMVI melanoma): > 25 µM
TGI (LOX IMVI melanoma): > 25 µM
GI50 (MCF7 breast): > 25 µM
TGI (MCF7 breast): > 25 µM
GI50 (OVCAR-5 ovarian): > 25 µM
TGI (OVCAR-5 ovarian): > 25 µM
GI50 (SR leukemia): > 25 µM
TGI (SR leukemia): > 25 µM
GI50 (DU-145 prostate): > 25 µM
TGI (DU-145 prostate): > 25 µM
GI50 (HOP-92 NSCLC): > 25 µM
TGI (HOP-92 NSCLC): > 25 µM

CCC/C(=N\NC(=S)N1CC2CCC(CC2)C1)c1ccccn1
TGI (HCT-116 colon): 0.86 µM
GI50 (COLO 205 colon): 0.0138 µM
TGI (COLO 205 colon): 0.0997 µM and 0.281 µM
GI50 (A498 renal): 0.263 µM
TGI (A498 renal): 2.06 µM and 1.61 µM
GI50 (UO-31 renal): 0.124 µM
TGI (UO-31 renal): 4.26 µM and 1.79 µM
GI50 (LOX IMVI melanoma): 0.0199 µM
TGI (LOX IMVI melanoma): 4.31 µM and 2.13 µM
TGI (MCF7 breast): 1.44 µM
GI50 (OVCAR-5 ovarian): 1.25 µM
TGI (OVCAR-5 ovarian): 5.64 µM and 3 µM
TGI (SR leukemia): 2.77 µM
TGI (DU-145 prostate): 2.82 µM
GI50 (HOP-92 NSCLC): 0.0362 µM
TGI (HOP-92 NSCLC): 0.879 µM and 1.34 µM

COc1cc(-c2cc(O)c(-c3ccc4ccccc4n3)c(=O)[nH]2)cc(OC)c1OC
TGI (HCT-116 colon): 62.2 µM
TGI (COLO 205 colon): > 93.2 µM
TGI (A498 renal): > 100 µM
TGI (UO-31 renal): > 100 µM
TGI (LOX IMVI melanoma): > 53.8 µM
TGI (MCF7 breast): > 100 µM
TGI (OVCAR-5 ovarian): > 94.2 µM
TGI (SR leukemia): 20.9 µM
TGI (DU-145 prostate): > 85.6 µM
TGI (HOP-92 NSCLC): > 81.6 µM

Cc1nnc(-c2cccc(-c3ccc(C(=O)NCC4CC4)cc3)c2)o1
GI50 (HCT-116 colon): > 25 µM
TGI (HCT-116 colon): > 25 µM
GI50 (COLO 205 colon): > 25 µM
TGI (COLO 205 colon): > 25 µM
GI50 (A498 renal): > 7.79 µM
TGI (A498 renal): > 25 µM
GI50 (UO-31 renal): > 25 µM
TGI (UO-31 renal): > 25 µM
GI50 (LOX IMVI melanoma): > 25 µM
TGI (LOX IMVI melanoma): > 25 µM
GI50 (MCF7 breast): > 25 µM
TGI (MCF7 breast): > 25 µM
GI50 (OVCAR-5 ovarian): > 25 µM
TGI (OVCAR-5 ovarian): > 25 µM
GI50 (SR leukemia): > 25 µM
TGI (SR leukemia): > 25 µM
GI50 (DU-145 prostate): > 25 µM
TGI (DU-145 prostate): > 25 µM
GI50 (HOP-92 NSCLC): > 25 µM
TGI (HOP-92 NSCLC): > 25 µM

O=c1cc(-c2cccc3c2Sc2ccccc2S3)oc(N2CCOCC2)c1
GI50 (HCT-116 colon): 9.55 µM
TGI (HCT-116 colon): 22.6 µM
GI50 (COLO 205 colon): 11.5 µM
TGI (COLO 205 colon): 26.3 µM
GI50 (A498 renal): 0.323 µM
TGI (A498 renal): 3.79 µM
GI50 (UO-31 renal): 1.79 µM
TGI (UO-31 renal): 15.8 µM
GI50 (LOX IMVI melanoma): 11.4 µM
TGI (LOX IMVI melanoma): 37.4 µM
GI50 (MCF7 breast): 5.94 µM
TGI (MCF7 breast): 22.4 µM
GI50 (OVCAR-5 ovarian): 13.5 µM
TGI (OVCAR-5 ovarian): 28.3 µM
GI50 (SR leukemia): 4.21 µM
TGI (SR leukemia): 27.3 µM
GI50 (DU-145 prostate): 8.19 µM
TGI (DU-145 prostate): 20.5 µM
GI50 (HOP-92 NSCLC): 6.91 µM
TGI (HOP-92 NSCLC): 21.9 µM

O=C(NCCCO)c1cc(Cl)ccc1O
GI50 (HCT-116 colon): 1.75 µM
TGI (HCT-116 colon): 10.5 µM
GI50 (COLO 205 colon): 1.95 µM
TGI (COLO 205 colon): 5.85 µM
GI50 (A498 renal): 4.43 µM
TGI (A498 renal): 12.7 µM
GI50 (UO-31 renal): 2.98 µM
TGI (UO-31 renal): 11.3 µM
GI50 (LOX IMVI melanoma): 2.5 µM
TGI (LOX IMVI melanoma): 11.5 µM
GI50 (MCF7 breast): 2.64 µM
TGI (MCF7 breast): 11.9 µM
GI50 (OVCAR-5 ovarian): 4.4 µM
TGI (OVCAR-5 ovarian): 19.9 µM
GI50 (SR leukemia): 3.24 µM
TGI (SR leukemia): 18.2 µM
GI50 (DU-145 prostate): 4.41 µM
TGI (DU-145 prostate): 16.1 µM
GI50 (HOP-92 NSCLC): 0.468 µM
TGI (HOP-92 NSCLC): 3.37 µM
